Experimental data taken from patent US11312712B2, “Azabenzimidazoles and their use as AMPA receptor modulators” (Janssen Pharmaceutica NV, priority 2015, dated 2022).

Each compound was assayed against GluA1o-γ8 (GRIA1o-CACNG8 fusion construct) (Homo sapiens (Human), UniProt P42261+Q8WXS5) (assay: Calcium flux assay (FLIPR), inhibition of TARP γ8 dependent AMPA receptor activity). Conditions: GluA1o-γ8 (GRIA1o-CACNG8 fusion) in HEK293 cells, calcium flux after 15 μM glutamate.
Type: cell-based
Description: This assay was used to test compounds for their ability to inhibit TARP γ8 dependent AMPA receptor activity. The AMPA receptor is a non-selective cation channel activated by glutamate. Ionotropic glutamate receptors normally desensitize too rapidly to allow detectable calcium influx in a FLIPR assay (Strange et al. (2006). “Functional characterisation of homomeric ionotropic glutamate receptors GluR1-GluR6 in a fluorescence-based high throughput screening assay.” Comb Chem High Throughput Screen 9(2): 147-158). But, this desensitization is incomplete, and a substantial steady-state current remains in the sustained presence of glutamate (Cho et al. (2007). “Two families of TARP isoforms that have distinct effects on the kinetic properties of AMPA receptors and synaptic currents.” Neuron 55(6): 890-904).
An in vitro assay was used to determine the potency of test compounds as inhibitors of the glutamate response of the channel formed by GluA1o-γ8. To ensure a 1:1 stoichiometry of GluA1o and γ8 subunits in the expressed channel, a fusion of the cDNAs for GRIA1o and CACNG8 was used. Following Shi et al (2009) “The stoichiometry of AMPA receptors and TARPs varies by neuronal cell type.” Neuron 62(5): 633-640), the C-terminus of the cDNA for GRIA1o was fused to the N-terminus of the cDNA for γ8. The linker sequence was QQQQQQQQQQEFAT. Channels expressed with this construct appear to have similar properties to channels formed by co-expression of GRIA1o with an excess of CACNG8 (Shi et al. 2009). A clonal cell line in HEK293 cells stably expressing this construct, with a geneticin selection marker, was generated for use in this assay.
Cell expressing the GRIA1o-CACNG8 fusion construct were grown in a monolayer in 96- or 384-well microtiter plates. They were washed with assay buffer (135 mM NaCl, 4 mM KCl, 3 mM CaCl2, 1 mM MgCl2, 5 mM glucose, 10 mM HEPES, pH 7.4, 300 mOs) using a Biotek EL405 plate washer. The cells were then loaded with a calcium-sensitive dye (Calcium-5 or Calcium-6, Molecular Devices) and the test compounds at a range of concentrations. Calcium flux following the addition of 15 μM glutamate was monitored using a Molecular Devices FLIPR Tetra. The fluorescence in each well was normalized to the fluorescence of negative and positive control wells. The negative control wells had no added compounds, and the positive control wells had been incubated with 10 μM CP465022 (a non-subtype-selective AMPA receptor antagonist) (Lazzaro et al. (2002). “Functional characterization of CP-465,022, a selective, noncompetitive AMPA receptor antagonist.” Neuropharmacology 42(2): 143-153). The responses to glutamate as functions of the test compound concentrations were fitted to a four-parameter logistic function. The fitted parameter corresponding to the midpoint was taken to be the potency of inhibition of the compound. The data in Table 4 below illustrates the observed potentcy for the compounds described herein. pIC50 refers to the negative log of the IC50 in molar.

Sequence of GluA1o-γ8 (GRIA1o-CACNG8 fusion construct) (P42261 other isoform, or with tags, fused parts or gaps): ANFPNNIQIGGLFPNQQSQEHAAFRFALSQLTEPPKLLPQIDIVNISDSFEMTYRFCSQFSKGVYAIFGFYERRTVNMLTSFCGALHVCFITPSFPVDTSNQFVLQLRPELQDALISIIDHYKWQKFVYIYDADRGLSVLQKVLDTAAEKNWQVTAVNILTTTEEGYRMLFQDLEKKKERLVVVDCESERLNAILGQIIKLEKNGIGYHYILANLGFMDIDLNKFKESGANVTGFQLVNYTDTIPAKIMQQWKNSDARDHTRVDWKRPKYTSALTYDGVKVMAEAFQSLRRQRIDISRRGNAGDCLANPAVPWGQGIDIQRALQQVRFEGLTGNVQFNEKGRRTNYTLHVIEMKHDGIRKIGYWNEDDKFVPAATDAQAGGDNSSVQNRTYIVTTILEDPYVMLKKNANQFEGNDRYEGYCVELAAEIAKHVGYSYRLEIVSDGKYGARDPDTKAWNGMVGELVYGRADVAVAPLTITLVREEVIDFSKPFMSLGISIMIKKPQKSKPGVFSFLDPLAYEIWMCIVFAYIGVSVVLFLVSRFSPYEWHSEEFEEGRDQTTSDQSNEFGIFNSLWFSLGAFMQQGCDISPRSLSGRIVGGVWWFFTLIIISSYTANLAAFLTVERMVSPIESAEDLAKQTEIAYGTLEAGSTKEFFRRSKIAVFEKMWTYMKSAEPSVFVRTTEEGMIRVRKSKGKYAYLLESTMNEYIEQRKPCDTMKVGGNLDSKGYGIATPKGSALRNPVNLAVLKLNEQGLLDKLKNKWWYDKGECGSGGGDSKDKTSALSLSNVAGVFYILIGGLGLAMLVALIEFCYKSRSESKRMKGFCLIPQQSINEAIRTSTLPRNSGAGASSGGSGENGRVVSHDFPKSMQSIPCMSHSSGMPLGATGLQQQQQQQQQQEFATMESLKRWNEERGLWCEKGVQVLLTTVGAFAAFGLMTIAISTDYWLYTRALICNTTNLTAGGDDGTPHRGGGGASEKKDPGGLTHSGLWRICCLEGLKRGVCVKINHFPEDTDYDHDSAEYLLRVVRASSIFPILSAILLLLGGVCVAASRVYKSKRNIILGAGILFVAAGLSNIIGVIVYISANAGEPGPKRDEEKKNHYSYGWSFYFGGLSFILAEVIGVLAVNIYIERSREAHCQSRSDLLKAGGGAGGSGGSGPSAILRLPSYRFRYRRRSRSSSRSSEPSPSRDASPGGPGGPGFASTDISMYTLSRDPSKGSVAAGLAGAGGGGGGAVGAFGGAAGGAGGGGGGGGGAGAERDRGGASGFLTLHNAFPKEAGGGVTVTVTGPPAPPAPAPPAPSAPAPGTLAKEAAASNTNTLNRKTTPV

| SMILES | IC50 |
| --- | --- |
| O=C1Cc2cc(-n3c(C4CCOCC4)nc4ccc(C(F)(F)F)nc43)ccc2N1 [Example 50, 5-[2-Tetrahydropyran-4-yl-5-(trifluoromethyl)imidazo[4,5-b]pyridin-3-yl]indolin-2-one] | 63.1 nM |
| CC(C)Cc1nc2ccc(C(F)(F)F)nc2n1-c1ccc2c(c1)CC(=O)N2 [Example 51, 5-[2-Isobutyl-5-(trifluoromethyl)imidazo[4,5-b]pyridin-3-yl]indolin-2-one] | 10 nM |
| O=C1Cc2cc(-n3c(CCC(F)(F)F)nc4ccc(C(F)(F)F)nc43)ccc2N1 [Example 53, 5-[5-(Trifluoromethyl)-2-(3,3,3-trifluoropropyl)imidazo[4,5-b]pyridin-3-yl]indolin-2-one] | 79.4 nM |
| O=C1Cc2cc(-n3c(CC4CCCC4)nc4ccc(C(F)(F)F)nc43)ccc2N1 [Example 54, 5-[2-(Cyclopentylmethyl)-5-(trifluoromethyl)imidazo[4,5-b]pyridin-3-yl]indolin-2-one] | 6.31 nM |
| O=C1Cc2cc(-n3c(C4CC4)nc4ccc(C(F)(F)F)nc43)ccc2N1 [Example 55, 5-[2-Cyclopropyl-5-(trifluoromethyl)imidazo[4,5-b]pyridin-3-yl]indolin-2-one] | 7.94 nM |
| O=C1Cc2cc(-n3c(Cc4cnccn4)nc4ccc(C(F)(F)F)nc43)ccc2N1 [Example 57, 5-[2-(Pyrazin-2-ylmethyl)-5-(trifluoromethyl)imidazo[4,5-b]pyridin-3-yl]indolin-2-one] | 15800 nM |
| FC(F)(F)c1ccc2nc(C3CCCC3)n(-c3ccc4[nH]ccc4c3)c2n1 [Example 58, 2-Cyclopentyl-3-(1H-indol-5-yl)-5-(trifluoromethyl)imidazo[4,5-b]pyridine] | 12.6 nM |
| CC(C)(C)c1nc2ccc(C(F)(F)F)nc2n1-c1ccc2[nH]ccc2c1 [Example 59, 2-tert-Butyl-3-(1H-indol-5-yl)-5-(trifluoromethyl)imidazo[4,5-b]pyridine] | 251 nM |
| O=C1Cc2cc(-n3c(C4CCCC4)nc4ccc(C(F)(F)F)nc43)ccc2N1 [Example 60, 5-[2-Cyclopentyl-5-(trifluoromethyl)imidazo[4,5-b]pyridin-3-yl]indolin-2-one] | 2 nM |
| CC(C)(C)c1nc2ccc(C(F)(F)F)nc2n1-c1ccc2c(c1)CC(=O)N2 [Example 61, 5-[2-tert-Butyl-5-(trifluoromethyl)imidazo[4,5-b]pyridin-3-yl]indolin-2-one] | 12.6 nM |
| Fc1ccc(-c2nc3c(N4CCOCC4)ccnc3n2-c2ccc3[nH]ncc3c2)cc1 [Example 62, 4-[2-(4-Fluorophenyl)-3-(1H-indazol-5-yl)imidazo[4,5-b]pyridin-7-yl]morpholine] | 6.31 nM |
| O=C1Cc2cc(-n3c(-c4ccc(F)cc4)nc4c(N5CCOCC5)ccnc43)ccc2N1 [Example 63, 5-[2-(4-Fluorophenyl)-7-morpholino-imidazo[4,5-b]pyridin-3-yl]indolin-2-one] | 3.16 nM |
| O=c1[nH]c2ccc(-n3c(-c4ccccc4)nc4ccc(N5CCCCC5)nc43)cc2s1 [Example 64, 6-[2-Phenyl-5-(1-piperidyl)imidazo[4,5-b]pyridin-3-yl]-3H-1,3-benzothiazol-2-one] | 5.01 nM |
| O=c1[nH]c2ccc(-n3c(-c4ccccc4)nc4ccc(N5CCOCC5)nc43)cc2s1 [Example 65, 6-(5-Morpholino-2-phenyl-imidazo[4,5-b]pyridin-3-yl)-3H-1,3-benzothiazol-2-one] | 316 nM |
| CN(C)c1ccc2nc(-c3ccccc3)n(-c3ccc4[nH]c(=O)sc4c3)c2n1 [Example 66, 6-[5-(Dimethylamino)-2-phenyl-imidazo[4,5-b]pyridin-3-yl]-3H-1,3-benzothiazol-2-one] | 12.6 nM |
| O=c1[nH]c2ccc(-n3c(-c4ccccc4)nc4ccc(C(F)F)nc43)cc2s1 [Example 67, 6-(5-(Difluoromethyl)-2-phenyl-3H-imidazo[4,5-b]pyridin-3-yl)benzo[d]thiazol-2(3H)-one] | 0.1 nM |
| O=c1[nH]c2ccc(-n3c(-c4ccc(C(F)F)cc4)nc4cccnc43)cc2s1 [Example 68, 6-[2-[4-(Difluoromethyl)phenyl]imidazo[4,5-b]pyridin-3-yl]-3H-1,3-benzothiazol-2-one] | 25.1 nM |

| SMILES | IC50 |
| --- | --- |
| O=c1[nH]c2ccc(-n3c(-c4ccccc4)nc4c(C(F)F)ccnc43)cc2s1 [Example 69, 6-[7-(Difluoromethyl)-2-phenyl-imidazo[4,5-b]pyridin-3-yl]-3H-1,3-benzothiazol-2-one] | 1.26 nM |
| CC(C)c1ccnc2c1nc(-c1ccccc1)n2-c1ccc2[nH]c(=O)sc2c1 [Example 70, 6-(7-Isopropyl-2-phenyl-imidazo[4,5-b]pyridin-3-yl)-3H-1,3-benzothiazol-2-one] | 0.631 nM |
| O=c1[nH]c2ccc(-n3c(-c4ccc(F)cc4)nc4ccc(CO)nc43)cc2s1 [Example 71, 6-(2-(4-Fluorophenyl)-5-(hydroxymethyl)-3H-imidazo[4,5-b]pyridin-3-yl)benzo[d]thiazol-2(3H)-one] | 39.8 nM |
| Cc1cc(O)c2nc(-c3ccc(F)cc3)n(-c3ccc4[nH]c(=O)sc4c3)c2n1 [Example 72, 6-(2-(4-Fluorophenyl)-7-hydroxy-5-methyl-3H-imidazo[4,5-b]pyridin-3-yl)benzo[d]thiazol-2(3H)-one] | 25.1 nM |
| O=C1Cc2cc(-n3c(CCCO)nc4ccc(C(F)(F)F)nc43)ccc2N1 [Example 73, 5-(2-(3-Hydroxypropyl)-5-(trifluoromethyl)-3H-imidazo[4,5-b]pyridin-3-yl)indolin-2-one] | 1260 nM |
| Cc1ccc2nc(C3CCC3)n(-c3ccc4c(c3)CC(=O)N4)c2n1 [Example 74, 5-(2-Cyclobutyl-5-methyl-imidazo[4,5-b]pyridin-3-yl)indolin-2-one] | 15.8 nM |
| CCc1nc2ccc(C)nc2n1-c1ccc2c(c1)CC(=O)N2 [Example 75, 5-(2-Ethyl-5-methyl-imidazo[4,5-b]pyridin-3-yl)indolin-2-one] | 251 nM |
| CC1(c2nc3ccc(C(F)(F)F)nc3n2-c2ccc3c(c2)CC(=O)N3)COC1 [Example 76, 5-[2-(3-Methyloxetan-3-yl)-5-(trifluoromethyl)imidazo[4,5-b]pyridin-3-yl]indolin-2-one] | 501 nM |
| COCCc1nc2ccc(C(F)(F)F)nc2n1-c1ccc2c(c1)CC(=O)N2 [Example 77, 5-[2-(2-Methoxyethyl)-5-(trifluoromethyl)imidazo[4,5-b]pyridin-3-yl]indolin-2-one] | 251 nM |
| c1cc2[nH]ncc2cc1-n1c(C2CCC2)nc2ccc(C3CC3)nc21 [Example 78, 2-Cyclobutyl-5-cyclopropyl-3-(1H-indazol-5-yl)imidazo[4,5-b]pyridine] | 0.158 nM |
| CC(C)c1nc2ccc(C3CC3)nc2n1-c1ccc2[nH]ncc2c1 [Example 79, 5-Cyclopropyl-3-(1H-indazol-5-yl)-2-isopropyl-imidazo[4,5-b]pyridine] | 2 nM |
| O=c1[nH]c2ccc(-n3c(C4CCC4)nc4ccc(C(F)(F)F)nc43)cc2o1 [Example 80, 6-[2-Cyclobutyl-5-(trifluoromethyl)imidazo[4,5-b]pyridin-3-yl]-3H-1,3-benzoxazol-2-one] | 2 nM |
| O=C(c1nc2ccc(C(F)(F)F)nc2n1-c1ccc2[nH]ncc2c1)N1CCC1 [Example 81, Azetidin-1-yl-[3-(1H-indazol-5-yl)-5-(trifluoromethyl)imidazo[4,5-b]pyridin-2-yl]methanone] | 501 nM |
| Nc1ccc2nc(-c3ccc(F)cc3)n(-c3ccc4[nH]c(=O)sc4c3)c2n1 [Example 82, 6-[5-Amino-2-(4-fluorophenyl)imidazo[4,5-b]pyridin-3-yl]-3H-1,3-benzothiazol-2-one] | 63.1 nM |
| CCC(CC)c1nc2ccc(C(F)(F)F)nc2n1-c1ccc2c(c1)CC(=O)N2 [Example 83, 5-[2-(1-Ethylpropyl)-5-(trifluoromethyl)imidazo[4,5-b]pyridin-3-yl]indolin-2-one] | 63.1 nM |
| Cc1ccc2nc(C(C)C)n(-c3ccc4c(c3)CC(=O)N4)c2n1 [Example 84, 5-(2-Isopropyl-5-methyl-imidazo[4,5-b]pyridin-3-yl)indolin-2-one] | 63.1 nM |
